Measurements: PubChem BioAssay (NCI)
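Cultured in 96-well plates, cells were exposed to test compound for 48 hours across five concentrations. TGI is the concentration that stops growth completely.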

Legend:
Test in all cases: NCI tumour cell line growth inhibition, 48 h
786-0 renal = test system: 786-0 renal
A549 NSCLC = test system: A549 NSCLC
ACHN renal = test system: ACHN renal
BT-549 breast = test system: BT-549 breast
CCRF-CEM leukemia = test system: CCRF-CEM leukemia
COLO 205 colon = test system: COLO 205 colon
DU-145 prostate = test system: DU-145 prostate
HCC-2998 colon = test system: HCC-2998 colon
HCT-15 colon = test system: HCT-15 colon
HOP-92 NSCLC = test system: HOP-92 NSCLC
HS 578T breast = test system: HS 578T breast
HT29 colon = test system: HT29 colon
IGROV1 ovarian = test system: IGROV1 ovarian
K-562 leukemia = test system: K-562 leukemia
KM12 colon = test system: KM12 colon
LOX IMVI melanoma = test system: LOX IMVI melanoma
M14 melanoma = test system: M14 melanoma
MALME-3M melanoma = test system: MALME-3M melanoma
MCF7 breast = test system: MCF7 breast
MDA-MB-231 breast = test system: MDA-MB-231 breast
MDA-MB-435 = test system: MDA-MB-435
MDA-N = test system: MDA-N
NCI-H226 lung = test system: NCI-H226 lung
NCI-H23 lung = test system: NCI-H23 lung
NCI-H460 lung = test system: NCI-H460 lung
NCI-H522 lung = test system: NCI-H522 lung
OVCAR-3 ovarian = test system: OVCAR-3 ovarian
OVCAR-4 ovarian = test system: OVCAR-4 ovarian
OVCAR-5 ovarian = test system: OVCAR-5 ovarian
OVCAR-8 ovarian = test system: OVCAR-8 ovarian
RPMI-8226 leukemia = test system: RPMI-8226 leukemia
RXF 393 renal = test system: RXF 393 renal
SF-268 CNS = test system: SF-268 CNS
SF-295 CNS = test system: SF-295 CNS
SK-MEL-2 melanoma = test system: SK-MEL-2 melanoma
SK-MEL-28 melanoma = test system: SK-MEL-28 melanoma
SK-MEL-5 melanoma = test system: SK-MEL-5 melanoma
SN12C renal = test system: SN12C renal
SNB-19 CNS = test system: SNB-19 CNS
SNB-75 CNS = test system: SNB-75 CNS
SR leukemia = test system: SR leukemia
SW-620 colon = test system: SW-620 colon
T-47D breast = test system: T-47D breast
TK-10 renal = test system: TK-10 renal
U251 CNS = test system: U251 CNS
UACC-257 melanoma = test system: UACC-257 melanoma
UACC-62 melanoma = test system: UACC-62 melanoma
UO-31 renal = test system: UO-31 renal
A498 renal = test system: A498 renal
CAKI-1 renal = test system: CAKI-1 renal
EKVX NSCLC = test system: EKVX NSCLC
HCT-116 colon = test system: HCT-116 colon
HL-60(TB) leukemia = test system: HL-60(TB) leukemia
HOP-62 NSCLC = test system: HOP-62 NSCLC
MOLT-4 leukemia = test system: MOLT-4 leukemia
PC-3 prostate = test system: PC-3 prostate
SF-539 CNS = test system: SF-539 CNS
SK-OV-3 ovarian = test system: SK-OV-3 ovarian

With CN1CCN(C(=S)N(C(=O)c2ccco2)C2CCCCC2)CC1 the TGI (786-0 renal) was greater than 100 µM, the TGI (A549 NSCLC) was greater than 100 µM and the TGI (ACHN renal) was greater than 100 µM. The TGI (BT-549 breast) was greater than 100 µM, the TGI (CCRF-CEM leukemia) was greater than 100 µM and the TGI (COLO 205 colon) was greater than 100 µM. It also gave a TGI (DU-145 prostate) greater than 100 µM, a TGI (HCC-2998 colon) greater than 100 µM and a TGI (HCT-15 colon) greater than 100 µM. The TGI (HOP-92 NSCLC) was greater than 100 µM, the TGI (HS 578T breast) was greater than 100 µM and the TGI (HT29 colon) was greater than 100 µM. For the same compound, the TGI (IGROV1 ovarian) was greater than 100 µM, the TGI (K-562 leukemia) was greater than 100 µM and the TGI (KM12 colon) was greater than 100 µM. For the same compound, the TGI (LOX IMVI melanoma) was greater than 100 µM, the TGI (M14 melanoma) was greater than 100 µM and the TGI (MALME-3M melanoma) was greater than 100 µM. The TGI (MCF7 breast) was greater than 100 µM, the TGI (MDA-MB-231 breast) was greater than 100 µM and the TGI (MDA-MB-435) was greater than 100 µM. For the same compound, the TGI (MDA-N) was greater than 100 µM, the TGI (NCI-H226 lung) was greater than 100 µM and the TGI (NCI-H23 lung) was greater than 100 µM. The TGI (NCI-H460 lung) was greater than 100 µM, the TGI (NCI-H522 lung) was greater than 100 µM and the TGI (OVCAR-3 ovarian) was greater than 100 µM. It also gave a TGI (OVCAR-4 ovarian) greater than 100 µM, a TGI (OVCAR-5 ovarian) greater than 100 µM and a TGI (OVCAR-8 ovarian) greater than 100 µM. The TGI (RPMI-8226 leukemia) was greater than 100 µM, the TGI (RXF 393 renal) was greater than 100 µM and the TGI (SF-268 CNS) was greater than 100 µM. It also gave a TGI (SF-295 CNS) greater than 100 µM, a TGI (SK-MEL-2 melanoma) greater than 100 µM and a TGI (SK-MEL-28 melanoma) greater than 100 µM. It also gave a TGI (SK-MEL-5 melanoma) greater than 100 µM, a TGI (SN12C renal) greater than 100 µM and a TGI (SNB-19 CNS) greater than 100 µM. For the same compound, the TGI (SNB-75 CNS) was greater than 100 µM, the TGI (SR leukemia) was greater than 100 µM and the TGI (SW-620 colon) was greater than 100 µM. It also gave a TGI (T-47D breast) greater than 100 µM, a TGI (TK-10 renal) greater than 100 µM and a TGI (U251 CNS) greater than 100 µM. It also gave a TGI (UACC-257 melanoma) greater than 100 µM, a TGI (UACC-62 melanoma) greater than 100 µM and a TGI (UO-31 renal) greater than 100 µM.

For COC(=O)c1cc(C)ccc1/C=C1\Cc2cccc(C)c2C1=O, the TGI (786-0 renal) was greater than 100 µM, the TGI (A498 renal) was greater than 100 µM and the TGI (A549 NSCLC) was greater than 100 µM. For the same compound, the TGI (ACHN renal) was greater than 100 µM, the TGI (BT-549 breast) was greater than 100 µM and the TGI (CAKI-1 renal) was greater than 100 µM. The TGI (CCRF-CEM leukemia) was greater than 100 µM, the TGI (DU-145 prostate) was greater than 100 µM and the TGI (EKVX NSCLC) was greater than 100 µM. The TGI (HCC-2998 colon) was greater than 100 µM, the TGI (HCT-116 colon) was greater than 100 µM and the TGI (HCT-15 colon) was greater than 100 µM. For the same compound, the TGI (HL-60(TB) leukemia) was greater than 100 µM, the TGI (HOP-62 NSCLC) was greater than 100 µM and the TGI (HOP-92 NSCLC) was greater than 100 µM. For the same compound, the TGI (HS 578T breast) was greater than 100 µM, the TGI (HT29 colon) was greater than 100 µM and the TGI (IGROV1 ovarian) was greater than 100 µM. For the same compound, the TGI (K-562 leukemia) was greater than 100 µM, the TGI (KM12 colon) was greater than 100 µM and the TGI (LOX IMVI melanoma) was 66.2 µM. It also gave a TGI (M14 melanoma) greater than 100 µM, a TGI (MALME-3M melanoma) of 96.9 µM and a TGI (MCF7 breast) greater than 100 µM. The TGI (MDA-MB-231 breast) was greater than 100 µM, the TGI (MDA-N) was 61.8 µM and the TGI (MOLT-4 leukemia) was greater than 100 µM. The TGI (NCI-H226 lung) was greater than 100 µM, the TGI (NCI-H23 lung) was greater than 100 µM and the TGI (NCI-H460 lung) was greater than 100 µM. The TGI (NCI-H522 lung) was 58.7 µM, the TGI (OVCAR-3 ovarian) was greater than 100 µM and the TGI (OVCAR-4 ovarian) was greater than 100 µM. The TGI (OVCAR-5 ovarian) was greater than 100 µM, the TGI (OVCAR-8 ovarian) was 81.4 µM and the TGI (PC-3 prostate) was 62.2 µM. The TGI (RPMI-8226 leukemia) was greater than 100 µM, the TGI (RXF 393 renal) was greater than 100 µM and the TGI (SF-268 CNS) was greater than 100 µM. For the same compound, the TGI (SF-295 CNS) was greater than 100 µM, the TGI (SF-539 CNS) was greater than 100 µM and the TGI (SK-MEL-28 melanoma) was greater than 100 µM. It also gave a TGI (SK-MEL-5 melanoma) of 25.9 µM, a TGI (SN12C renal) of 96 µM and a TGI (SNB-19 CNS) greater than 100 µM. It also gave a TGI (SNB-75 CNS) greater than 100 µM, a TGI (SR leukemia) greater than 100 µM and a TGI (SW-620 colon) greater than 100 µM. It also gave a TGI (T-47D breast) greater than 100 µM, a TGI (TK-10 renal) greater than 100 µM and a TGI (U251 CNS) greater than 100 µM. It also gave a TGI (UACC-257 melanoma) greater than 100 µM and a TGI (UO-31 renal) greater than 100 µM.

In the case of CSc1ncnc2c1cnn2Cc1cn(CCCCO)nn1, the TGI (786-0 renal) is reported as greater than 100 µM, the TGI (A498 renal) is reported as greater than 100 µM and the TGI (A549 NSCLC) is reported as greater than 100 µM. The TGI (ACHN renal) was greater than 100 µM, the TGI (BT-549 breast) was greater than 100 µM and the TGI (CAKI-1 renal) was greater than 100 µM. It also gave a TGI (CCRF-CEM leukemia) greater than 100 µM, a TGI (COLO 205 colon) greater than 100 µM and a TGI (DU-145 prostate) greater than 100 µM. The TGI (EKVX NSCLC) was greater than 100 µM, the TGI (HCC-2998 colon) was greater than 100 µM and the TGI (HCT-116 colon) was greater than 100 µM. The TGI (HCT-15 colon) was greater than 100 µM, the TGI (HOP-62 NSCLC) was greater than 100 µM and the TGI (HOP-92 NSCLC) was greater than 100 µM. It also gave a TGI (HS 578T breast) greater than 100 µM, a TGI (HT29 colon) greater than 100 µM and a TGI (IGROV1 ovarian) greater than 100 µM. The TGI (K-562 leukemia) was greater than 100 µM, the TGI (KM12 colon) was greater than 100 µM and the TGI (LOX IMVI melanoma) was greater than 100 µM. The TGI (M14 melanoma) was greater than 100 µM, the TGI (MALME-3M melanoma) was greater than 100 µM and the TGI (MCF7 breast) was greater than 100 µM. It also gave a TGI (MDA-MB-231 breast) greater than 100 µM, a TGI (MDA-MB-435) greater than 100 µM and a TGI (MDA-N) greater than 100 µM. The TGI (MOLT-4 leukemia) was greater than 100 µM, the TGI (NCI-H226 lung) was greater than 100 µM and the TGI (NCI-H23 lung) was greater than 100 µM. The TGI (NCI-H460 lung) was greater than 100 µM, the TGI (NCI-H522 lung) was greater than 100 µM and the TGI (OVCAR-3 ovarian) was greater than 100 µM. The TGI (OVCAR-4 ovarian) was greater than 100 µM, the TGI (OVCAR-5 ovarian) was greater than 100 µM and the TGI (OVCAR-8 ovarian) was greater than 100 µM. The TGI (PC-3 prostate) was greater than 100 µM, the TGI (RPMI-8226 leukemia) was greater than 100 µM and the TGI (RXF 393 renal) was greater than 100 µM. For the same compound, the TGI (SF-268 CNS) was greater than 100 µM, the TGI (SF-295 CNS) was greater than 100 µM and the TGI (SF-539 CNS) was greater than 100 µM. For the same compound, the TGI (SK-MEL-2 melanoma) was greater than 100 µM, the TGI (SK-MEL-28 melanoma) was greater than 100 µM and the TGI (SK-MEL-5 melanoma) was greater than 100 µM. It also gave a TGI (SK-OV-3 ovarian) greater than 100 µM, a TGI (SN12C renal) greater than 100 µM and a TGI (SNB-19 CNS) greater than 100 µM. It also gave a TGI (SNB-75 CNS) greater than 100 µM, a TGI (SR leukemia) greater than 100 µM and a TGI (SW-620 colon) greater than 100 µM. It also gave a TGI (T-47D breast) greater than 100 µM, a TGI (TK-10 renal) greater than 100 µM and a TGI (U251 CNS) greater than 100 µM. For the same compound, the TGI (UACC-257 melanoma) was greater than 100 µM, the TGI (UACC-62 melanoma) was greater than 100 µM and the TGI (UO-31 renal) was greater than 100 µM.
